Data reported in patent publication US20250382273A1 (INSTITUT NATIONAL DE LA SANTE ET DE LA RECHERCHE MEDICALE, priority 2022, published 2025).

Each compound was assayed on M. tuberculosis H37Rv_DdnL49P_gfp. Conditions: in combination with pretomanid, unit inferred; read-out: average EC50 H37Rv_DdnL49P_gfp.
Format: cell-based, Mycobacterium tuberculosis
In the case of `CC(C)(C)C#Cc1ccc2nc(NC(=O)[C@@H]3C4C=CC(C4)[C@@H]3C(=O)O)sc2c1` (stereo partly drawn) [Example 78, 3-[[6-(3,3-dimethylbut-1-ynyl)-1,3-benzothiazol-2-yl]carbamoyl]bicyclo [2.2.1]hept-5-ene-2-carboxylic acid], the EC50 is reported as 0.22 µM.

Same assay, conditions: read-out: EC50 H37Rv_DdnL49P_gfp
`O=C1[C@@H]2[C@H](C(=O)N1c1nc3ccc(-c4ccoc4)cc3s1)[C@@H]1C=C[C@H]2C1` [Example 70, (1R,2S,6R,7S)-4-[6-(3-furyl)-1,3-benzothiazol-2-yl]-4-azatricyclo[5.2.1.02,6]dec-8-ene-3,5-dione] showed an EC50 of 1 to 5 µM. Work on `C#CCOc1ccc(-c2ccc3nc(N4C(=O)[C@@H]5[C@H](C4=O)[C@@H]4C=C[C@H]5C4)sc3c2)cc1` [Example 71, (1R,2S,6R,7S)-4-[6-(4-prop-2-ynoxyphenyl)-1,3-benzothiazol-2-yl]-4-azatricyclo[5.2.1.02,6]dec-8-ene-3,5-dione] yielded an EC50 of under 1 µM. With `C#Cc1ccc2nc(N3C(=O)[C@@H]4[C@H](C3=O)[C@@H]3C=C[C@H]4C3)sc2c1` [Example 72, (1R,2S,6R,7S)-4-(6-ethynyl-1,3-benzothiazol-2-yl)-4-azatricyclo[5.2.1.02,6]dec-8-ene-3,5-dione] the EC50 was 1 to 5 µM. With `C#CCOc1ccc2nc(N3C(=O)[C@@H]4[C@H](C3=O)[C@@H]3C=C[C@H]4C3)sc2c1` [Example 73, (1R,2S,6R,7S)-4-(6-prop-2-ynoxy-1,3-benzothiazol-2-yl)-4-azatricyclo[5.2.1.02,6]dec-8-ene-3,5-dione] the EC50 was under 1 µM. `O=C1[C@@H]2C3C=CC(C3)[C@@H]2C(=O)N1c1nc2c(O)cccc2s1` [Example 74] showed an EC50 of 1 to 5 µM. Work on `C#CCOc1cccc2sc(NC(=O)[C@@H]3C4C=CC(C4)[C@@H]3C(=O)O)nc12` (stereo partly drawn) [Example 75, 3-[(4-prop-2-ynoxy-1,3-benzothiazol-2-yl)carbamoyl]bicyclo[2.2.1]hept-5-ene-2-carboxylic acid] yielded an EC50 of 1 to 5 µM. Work on `O=C(Nc1nc2ccc(C#Cc3ccccc3)cc2s1)[C@@H]1C2C=CC(C2)[C@@H]1C(=O)O` (stereo partly drawn) [Example 77, 3-[[6-(2-phenylethynyl)-1,3-benzothiazol-2-yl]carbamoyl]bicyclo[2.2.1]hept-5-ene-2-carboxylic acid] yielded an EC50 of under 1 µM. In the case of `CC(C)(C)C#Cc1ccc2nc(NC(=O)[C@@H]3C4C=CC(C4)[C@@H]3C(=O)O)sc2c1` (stereo partly drawn) [Example 78, 3-[[6-(3,3-dimethylbut-1-ynyl)-1,3-benzothiazol-2-yl]carbamoyl]bicyclo [2.2.1]hept-5-ene-2-carboxylic acid], the EC50 is reported as under 1 µM. Work on `O=C(Nc1nc2ccc(C#CC3CC3)cc2s1)[C@@H]1C2C=CC(C2)[C@@H]1C(=O)O` (stereo partly drawn) [Example 79, 3-[[6-(2-cyclopropylethynyl)-1,3-benzothiazol-2-yl]carbamoyl]bicyclo[2.2.1]hept-5-ene-2-carboxylic acid] yielded an EC50 of under 1 µM. With `O=C(Nc1nc2ccc(-c3cncnc3)cc2s1)[C@@H]1C2C=CC(C2)[C@@H]1C(=O)O` (stereo partly drawn) [Example 80, 3-[(6-pyrimidin-5-yl-1,3-benzothiazol-2-yl)carbamoyl]bicyclo[2.2.1]hept-5-ene-2-carboxylic acid] the EC50 was 10 to 20 µM. For `O=C(Nc1nc2ccc(-c3ccc4ncccc4c3)cc2s1)[C@@H]1C2C=CC(C2)[C@@H]1C(=O)O` (stereo partly drawn) [Example 81, 3-[[6-(6-quinolyl)-1,3-benzothiazol-2-yl]carbamoyl]bicyclo[2.2.1]hept-5-ene-2-carboxylic acid], the EC50 was 1 to 5 µM. In the case of `Cc1ccnc(Nc2ccc3nc(NC(=O)[C@@H]4C5C=CC(C5)[C@@H]4C(=O)O)sc3c2)c1` (stereo partly drawn) [Example 84, 3-[[6-[(4-methyl-2-pyridyl)amino]-1,3-benzothiazol-2-yl]carbamoyl]bicyclo[2.2.1]hept-5-ene-2-carboxylic acid], the EC50 is reported as 1 to 5 µM. Work on `O=C(Nc1nc2ccc(Nc3cc(F)ccn3)cc2s1)[C@@H]1C2C=CC(C2)[C@@H]1C(=O)O` (stereo partly drawn) [Example 85, 3-[[6-[(4-fluoro-2-pyridyl)amino]-1,3-benzothiazol-2-yl]carbamoyl]bicyclo[2.2.1]hept-5-ene-2-carboxylic acid] yielded an EC50 of under 1 µM. For `O=C(Nc1nc2ccc(Nc3ccc(F)cn3)cc2s1)[C@@H]1C2C=CC(C2)[C@@H]1C(=O)O` (stereo partly drawn) [Example 86, 3-[[6-[(5-fluoro-2-pyridyl)amino]-1,3-benzothiazol-2-yl]carbamoyl]bicyclo[2.2.1]hept-5-ene-2-carboxylic acid], the EC50 was under 1 µM. `O=C1[C@@H]2C3C=CC(C3)[C@@H]2C(=O)N1c1nc2ccc(Nc3ccc(F)cn3)cc2s1` [Example 87, 4-[6-[(5-fluoro-2-pyridyl)amino]-1,3-benzothiazol-2-yl]-4-azatricyclo[5.2.1.02,6]dec-8-ene-3,5-dione] gave an EC50 of under 1 µM. Compound `O=C(Nc1nc2ccc(Nc3cccc(F)n3)cc2s1)[C@@H]1C2C=CC(C2)[C@@H]1C(=O)O` (stereo partly drawn) [Example 88, 3-[[6-[(6-fluoro-2-pyridyl)amino]-1,3-benzothiazol-2-yl]carbamoyl]bicyclo[2.2.1]hept-5-ene-2-carboxylic acid] has an EC50 of under 1 µM. `O=C1[C@@H]2C3C=CC(C3)[C@@H]2C(=O)N1c1nc2ccc(Nc3cccc(F)n3)cc2s1` [Example 89, 4-[6-[(6-fluoro-2-pyridyl)amino]-1,3-benzothiazol-2-yl]-4-azatricyclo[5.2.1.02,6]dec-8-ene-3,5-dione] showed an EC50 of 1 to 5 µM. In the case of `O=C1[C@@H]2C3C=CC(C3)[C@@H]2C(=O)N1c1nc2ccc(Nc3ccnc(C(F)(F)F)c3)cc2s1` [Example 90, 4-[6-[[2-(trifluoromethyl)-4-pyridyl]amino]-1,3-benzothiazol-2-yl]-4-azatricyclo[5.2.1.02,6]dec-8-ene-3,5-dione], the EC50 is reported as under 1 µM. For `O=C(Nc1nc2ccc(Nc3cncc(C(F)(F)F)c3)cc2s1)[C@@H]1C2C=CC(C2)[C@@H]1C(=O)O` (stereo partly drawn) [Example 91, 3-[[6-[[5-(trifluoromethyl)-3-pyridyl]amino]-1,3-benzothiazol-2-yl]carbamoyl]bicyclo[2.2.1]hept-5-ene-2-carboxylic acid], the EC50 was 5 to 10 µM. With `COc1cc(Nc2ccc3nc(N4C(=O)[C@@H]5C6C=CC(C6)[C@@H]5C4=O)sc3c2)ccn1` [Example 92, 4-[6-[(2-methoxy-4-pyridyl)amino]-1,3-benzothiazol-2-yl]-4-azatricyclo[5.2.1.02,6]dec-8-ene-3,5-dione] the EC50 was 1 to 5 µM. With `O=C(Nc1nc2ccc(Nc3ccc(OC(F)(F)F)cn3)cc2s1)[C@@H]1C2C=CC(C2)[C@@H]1C(=O)O` (stereo partly drawn) [Example 93, 3-[[6-[[5-(trifluoromethoxy)-2-pyridyl]amino]-1,3-benzothiazol-2-yl]carbamoyl]bicyclo[2.2.1]hept-5-ene-2-carboxylic acid] the EC50 was under 1 µM. Work on `O=C1[C@@H]2C3C=CC(C3)[C@@H]2C(=O)N1c1nc2ccc(Nc3ccc(C(F)(F)F)cn3)cc2s1` [Example 95] yielded an EC50 of under 1 µM. `O=C(Nc1nc2ccc(Nc3ccc(C(F)(F)F)cn3)cc2s1)[C@@H]1C2C=CC(C2)[C@@H]1C(=O)O` (stereo partly drawn) [Example 96, 3-[[6-[[5-(trifluoromethyl)-2-pyridyl]amino]-1,3-benzothiazol-2-yl]carbamoyl]bicyclo[2.2.1]hept-5-ene-2-carboxylic acid] showed an EC50 of under 1 µM. For `O=C1[C@@H]2C3C=CC(C3)[C@@H]2C(=O)N1c1nc2ccc(Nc3cccc(C(F)(F)F)n3)cc2s1` [Example 97, 4-[6-[[6-(trifluoromethyl)-2-pyridyl]amino]-1,3-benzothiazol-2-yl]-4-azatricyclo[5.2.1.02,6]dec-8-ene-3,5-dione], the EC50 was under 1 µM. With `O=C(Nc1nc2ccc(Nc3ccnc(F)c3)cc2s1)[C@@H]1C2C=CC(C2)[C@@H]1C(=O)O` (stereo partly drawn) [Example 99, 3-[[6-[(2-fluoro-4-pyridyl)amino]-1,3-benzothiazol-2-yl]carbamoyl]bicyclo[2.2.1]hept-5-ene-2-carboxylic acid] the EC50 was 1 to 5 µM. With `O=C(Nc1nc2ccc(-c3ccc(N4CCCCC4)cc3)cc2s1)[C@@H]1C2C=CC(C2)[C@@H]1C(=O)O` (stereo partly drawn) [Example 100] the EC50 was under 1 µM.
